Laboratory results published in PubChem BioAssay AID292 (DTP/NCI, 2004).
Several values for one entry are separate records, joined by “and”; a condition that tells them apart may be missing. Identical values can stand only once. Toxic doses and inconclusive results are not listed.

Test system: B6C3F1 mice, ip Sarcoma M5076, median survival T/C
Experiment: NCI In Vivo Anticancer Drug Screen. Data for tumor model Sarcoma M5076 (intraperitoneal) in B6C3F1 mice
Conditions: endpoint: median survival time, higher = longer survival
Summary of the method: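 Antitumour effect is judged in tumour-bearing mice by comparing survival after compound dosing against vehicle-only animals, reported as T/C.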

[1] = dose: 25.0 mg/kg/injection, schedule: Q04DX004 (ip), vehicle: saline with Tween-80
[2] = dose: 50.0 mg/kg/injection, schedule: Q04DX004 (ip), vehicle: saline with Tween-80
[3] = dose: 100.0 mg/kg/injection, schedule: Q04DX004 (ip), vehicle: saline with Tween-80
[4] = dose: 200.0 mg/kg/injection, schedule: Q04DX004 (ip), vehicle: saline with Tween-80
[5] = dose: 50.0 mg/kg/injection, schedule: Q04DX004 (ip), vehicle: Klucel (hydroxypropylcellulose) (HPC)
[6] = dose: 100.0 mg/kg/injection, schedule: Q04DX004 (ip), vehicle: Klucel (hydroxypropylcellulose) (HPC)
[7] = dose: 200.0 mg/kg/injection, schedule: Q04DX004 (ip), vehicle: Klucel (hydroxypropylcellulose) (HPC)
[8] = dose: 400.0 mg/kg/injection, schedule: Q04DX004 (ip), vehicle: Klucel (hydroxypropylcellulose) (HPC)
[9] = dose: 800.0 mg/kg/injection, schedule: Q04DX004 (ip), vehicle: Klucel (hydroxypropylcellulose) (HPC)
[10] = dose: 37.5 mg/kg/injection, schedule: Q04DX004 (ip), vehicle: saline with Tween-80
[11] = dose: 300.0 mg/kg/injection, schedule: Q04DX004 (ip), vehicle: saline with Tween-80
[12] = dose: 75.0 mg/kg/injection, schedule: Q04DX004 (ip), vehicle: saline with Tween-80
[13] = dose: 150.0 mg/kg/injection, schedule: Q04DX004 (ip), vehicle: saline with Tween-80
[14] = dose: 600.0 mg/kg/injection, schedule: Q04DX004 (ip), vehicle: saline with Tween-80
[15] = dose: 6.25 mg/kg/injection, schedule: Q04DX004 (ip), vehicle: other
[16] = dose: 12.5 mg/kg/injection, schedule: Q04DX004 (ip), vehicle: other
[17] = dose: 400.0 mg/kg/injection, schedule: Q04DX004 (ip), vehicle: saline with Tween-80

## CSC1SCC2C(=O)N(C)C(C(C)C)C(=O)OCC(NC(=O)c3cnc4ccccc4n3)C(=O)NC(C)C(=O)N(C)C1C(=O)N(C)C(C(C)C)C(=O)OCC(NC(=O)c1cnc3ccccc3n1)C(=O)NC(C)C(=O)N2C (stereo not drawn)
dose: 12.5 micrograms/kg/injection, schedule: Q04DX004 (ip), vehicle: saline with Tween-80
  T/C: 100 % of control
dose: 25.0 micrograms/kg/injection, schedule: Q04DX004 (ip), vehicle: saline with Tween-80
  T/C: 104 % of control
dose: 50.0 micrograms/kg/injection, schedule: Q04DX004 (ip), vehicle: saline with Tween-80
  T/C: 110 % of control and 111 % of control
dose: 100.0 micrograms/kg/injection, schedule: Q04DX004 (ip), vehicle: saline with Tween-80
  T/C: 114 % of control
dose: 200.0 micrograms/kg/injection, schedule: Q04DX004 (ip), vehicle: saline with Tween-80
  T/C: 123 % of control

## C/C([O-])=c1\c(C)nn2ccc[n+]12
[1]
  T/C: 100 % of control
[2]
  T/C: 106 % of control
[3]
  T/C: 103 % of control
[4]
  T/C: 94 % of control

## CCCC1(c2ccccc2)C(=O)NCNC1=O
[5]
  T/C: 99 % of control
[6]
  T/C: 95 % of control
[7]
  T/C: 88 % of control
[8]
  T/C: 88 % of control
[9]
  T/C: 88 % of control

## S=c1sc(-c2ccc(Cl)cc2)nn1CSc1nc2ccccc2o1
[10]
  T/C: 86 % of control
[11]
  T/C: 94 % of control

## COC1=CCC23C(=O)C=CC(=O)C2(C1)C(=O)c1ccccc1C3=O (stereo not drawn)
dose: 1.5 mg/kg/injection, schedule: Q04DX004 (ip), vehicle: saline with Tween-80
  T/C: 110 % of control
dose: 3.0 mg/kg/injection, schedule: Q04DX004 (ip), vehicle: saline with Tween-80
  T/C: 95 % of control
dose: 6.0 mg/kg/injection, schedule: Q04DX004 (ip), vehicle: saline with Tween-80
  T/C: 94 % of control
dose: 12.0 mg/kg/injection, schedule: Q04DX004 (ip), vehicle: saline with Tween-80
  T/C: 98 % of control
dose: 24.0 mg/kg/injection, schedule: Q04DX004 (ip), vehicle: saline with Tween-80
  T/C: 108 % of control

## Clc1cccc(N(C2=NCCS2)C2=NCCS2)c1
[5]
  T/C: 107 % of control
[6]
  T/C: 101 % of control
[7]
  T/C: 101 % of control
[8]
  T/C: 96 % of control
[9]
  T/C: 92 % of control

## C[n+]1c2cc(N)ccc2cc2ccc(N)cc21
dose: 1.5 mg/kg/injection, schedule: Q04DX004 (ip), vehicle: saline
  T/C: 101 % of control
dose: 3.0 mg/kg/injection, schedule: Q04DX004 (ip), vehicle: saline
  T/C: 94 % of control
dose: 6.0 mg/kg/injection, schedule: Q04DX004 (ip), vehicle: saline
  T/C: 106 % of control and 118 % of control and 120 % of control
dose: 12.0 mg/kg/injection, schedule: Q04DX004 (ip), vehicle: saline
  T/C: 116 % of control and 123 % of control
dose: 24.0 mg/kg/injection, schedule: Q04DX004 (ip), vehicle: saline
  T/C: 112 % of control

## Nc1nc(=O)nc2[nH]c3c4cccc5cccc(c3nc12)c54
[10]
  T/C: 101 % of control
[12]
  T/C: 95 % of control
[13]
  T/C: 98 % of control
[11]
  T/C: 90 % of control
[14]
  T/C: 94 % of control

## NCCCN=c1ccc2c3c1c(O)c1c(O)ccc(=O)c1c3[nH]n2CCNCCO
dose: 8.0 mg/kg/injection, schedule: Q04DX004 (ip), vehicle: water
  T/C: 171 % of control
dose: 16.0 mg/kg/injection, schedule: Q04DX004 (ip), vehicle: water
  T/C: 186 % of control

## c1ccc2[nH]c(CN(CCN(Cc3nc4ccccc4[nH]3)Cc3nc4ccccc4[nH]3)Cc3nc4ccccc4[nH]3)nc2c1
dose: 3.12 mg/kg/injection, schedule: Q04DX004 (ip), vehicle: other
  T/C: 103 % of control
[15]
  T/C: 108 % of control
[16]
  T/C: 100 % of control

## CN=C(N)c1ccc(N=C(N)c2ccc(C(N)=Nc3ccc(C(N)=NC)cc3)cc2)cc1
dose: 3.75 mg/kg/injection, schedule: Q01DX005 (ip), vehicle: saline
  T/C: 110 % of control
dose: 7.5 mg/kg/injection, schedule: Q01DX005 (ip), vehicle: saline
  T/C: 116 % of control
dose: 7.5 mg/kg/injection, schedule: Q04DX004 (ip), vehicle: saline
  T/C: 88 % of control
dose: 15.0 mg/kg/injection, schedule: Q01DX005 (ip), vehicle: saline
  T/C: 124 % of control
dose: 15.0 mg/kg/injection, schedule: Q04DX004 (ip), vehicle: saline
  T/C: 98 % of control
dose: 18.0 mg/kg/injection, schedule: Q01DX005 (ip), vehicle: saline
  T/C: 156 % of control
dose: 30.0 mg/kg/injection, schedule: Q04DX004 (ip), vehicle: saline
  T/C: 109 % of control

## CC1=CC(C)(C)Nc2ccc(OC(=O)/C=C(C)/C=C/C=C(C)/C=C/C3=C(C)CCCC3(C)C)cc21
[10]
  T/C: 96 % of control
[12]
  T/C: 98 % of control
[13]
  T/C: 98 % of control
[11]
  T/C: 89 % of control
[14]
  T/C: 89 % of control

## O=C1C2CC(Cl)C(SSC3CC4C(=O)N(SC(Cl)(Cl)C(Cl)Cl)C(=O)C4CC3Cl)CC2C(=O)N1SC(Cl)(Cl)C(Cl)Cl (stereo not drawn)
dose: 12.5 mg/kg/injection, schedule: Q04DX004 (ip), vehicle: saline with Tween-80
  T/C: 97 % of control
[1]
  T/C: 95 % of control
[2]
  T/C: 98 % of control and 105 % of control
[3]
  T/C: 90 % of control and 97 % of control
[4]
  T/C: 102 % of control and 117 % of control
[17]
  T/C: 110 % of control
dose: 800.0 mg/kg/injection, schedule: Q04DX004 (ip), vehicle: saline with Tween-80
  T/C: 109 % of control

## COc1ccc(-c2cc(C(=O)Nc3cc(C(F)(F)F)cc(C(F)(F)F)c3)c3ccccc3n2)cc1
dose: 50.0 mg/kg/injection, schedule: Q04DX004 (ip), vehicle: DMSO
  T/C: 101 % of control
dose: 100.0 mg/kg/injection, schedule: Q04DX004 (ip), vehicle: DMSO
  T/C: 94 % of control
dose: 200.0 mg/kg/injection, schedule: Q04DX004 (ip), vehicle: DMSO
  T/C: 110 % of control
dose: 400.0 mg/kg/injection, schedule: Q04DX004 (ip), vehicle: DMSO
  T/C: 111 % of control

## O=C(Nc1cccc(O)c1)C(Cl)=C(Cl)Cl
[15]
  T/C: 96 % of control
[16]
  T/C: 95 % of control

## Nc1ccccc1N
dose: 12.0 mg/kg/injection, schedule: Q04DX004 (ip), vehicle: Klucel (hydroxypropylcellulose) (HPC)
  T/C: 99 % of control
dose: 25.0 mg/kg/injection, schedule: Q04DX004 (ip), vehicle: Klucel (hydroxypropylcellulose) (HPC)
  T/C: 98 % of control
[5]
  T/C: 110 % of control
[6]
  T/C: 98 % of control
[7]
  T/C: 103 % of control

## O=C1C=C(N2CC2)C(=O)C(N2CC2)=C1N1CC1
dose: 1.56 micrograms/kg/injection, schedule: Q04DX004 (ip), vehicle: saline
  T/C: 99 % of control
dose: 3.12 micrograms/kg/injection, schedule: Q04DX004 (ip), vehicle: saline
  T/C: 103 % of control
dose: 6.25 micrograms/kg/injection, schedule: Q04DX004 (ip), vehicle: saline
  T/C: 111 % of control
dose: 12.5 micrograms/kg/injection, schedule: Q04DX004 (ip), vehicle: saline
  T/C: 111 % of control
dose: 25.0 micrograms/kg/injection, schedule: Q04DX004 (ip), vehicle: saline
  T/C: 114 % of control

## C=CCNC(=O)c1ccccc1SC(C)=O
[2]
  T/C: 103 % of control
[3]
  T/C: 96 % of control
[4]
  T/C: 90 % of control
[17]
  T/C: 103 % of control

## Cc1ccc(C(=O)Nc2ccc(S(=O)(=O)O)c3cc(S(=O)(=O)O)cc(S(=O)(=O)O)c23)cc1NC(=O)c1cccc(NC(=O)Nc2cccc(C(=O)Nc3cc(C(=O)Nc4ccc(S(=O)(=O)O)c5cc(S(=O)(=O)O)cc(S(=O)(=O)O)c45)ccc3C)c2)c1
dose: 25.0 mg/kg/injection, schedule: Q04DX004 (ip), vehicle: saline
  T/C: 105 % of control
dose: 50.0 mg/kg/injection, schedule: Q04DX004 (ip), vehicle: saline
  T/C: 108 % of control and 109 % of control
dose: 100.0 mg/kg/injection, schedule: Q04DX004 (ip), vehicle: saline
  T/C: 112 % of control

## CC1CC(Nc2ccc(NC3=CC(=O)OC(C)C3)cc2)=CC(=O)O1 (stereo not drawn)
[10]
  T/C: 99 % of control
[12]
  T/C: 97 % of control
[13]
  T/C: 94 % of control
[11]
  T/C: 90 % of control

## CN(C)CN1C(=O)S/C(=C2\C(=O)N(CN(C)C)c3ccccc32)C1=O
[5]
  T/C: 102 % of control
[6]
  T/C: 90 % of control
[7]
  T/C: 90 % of control

## Cc1nnc2nc(N)[nH]n2c1=O
dose: 25.0 mg/kg/injection, schedule: Q04DX004 (ip), vehicle: water
  T/C: 97 % of control
dose: 50.0 mg/kg/injection, schedule: Q04DX004 (ip), vehicle: water
  T/C: 104 % of control
dose: 100.0 mg/kg/injection, schedule: Q04DX004 (ip), vehicle: water
  T/C: 96 % of control
